Test results from PMC7367283, “A PIP2 substitute mediates voltage sensor-pore coupling in KCNQ activation” (Communications Biology, 2020).
“And” between values parts separate entries of the source, which are not always exact repeats. Equal entries are not always repeated.

How the values were obtained:
Assay in all cases: Two-electrode voltage clamp of mutant KCNQ1 in Xenopus oocytes
Format in all cases: cell-based
KCNQ1 K358A = KCNQ1 K358A (Homo sapiens, UniProt P51787, K358A)
Text: (§1) In a previous study, mutation of residues in the predicted PIP2-binding site reduced KCNQ1 currents. CP1 modifies voltage-dependent activation of KCNQ1 channels by shifting the voltage dependence of channel opening, measured as the voltage dependence of the conductance (G–V) relationship, to more negative voltages (Fig. 1c) among other characteristics (see below). We made mutations to the residues around the CP1-interacting pocket as indicated by molecular docking (Fig. 1b), and examined the effects of the mutations on the CP1-induced shift of the G–V relationship. The mutations of the KCNQ1 residues that interact with CP1 in docking simulations reduced the shift of the G–V relationship (Fig. 1c, d), supporting the interaction of these residues with CP1.
(§2) Complementary DNA (cDNA) encoding human KCNQ1 (UniProtKB/Swiss‐Prot under accession no. P51787), KCNQ2 (O43526), KCNQ3 (O43525), KCNE1 (P15382), Kir1.1 (P48048), hERG (Q12809), KV4.2 (Q63881), NaV1.5 (Q14524), NaV β1 (Q07699), CaV1.2 (Q13936), CaV β1a (Q02641), CaV α2/δ1 (P54289), and HCN4 (Q9Y3Q4) were subcloned into oocyte expression vectors, respectively. Site-directed mutations of the KCNQ1 channel were all produced by overlap extension polymerase chain reaction (PCR) with high-fidelity Pfu polymerase (Stratagene, CA). The presence of the desired mutation was verified by sequencing the PCR-amplified regions. All the primer sequences used in this study are available in Supplementary Table 1. The complementary RNA (cRNA) of all these channels and mutations was transcribed in vitro with the T3, T7, or SP6 polymerase mMessage mMachine kit (Invitrogen, Thermo Fisher Scientific, MO).
(§3) The use of Xenopus laevis to obtain oocytes was approved by the Washington University Animal Studies Committee (protocol #20190030). Oocytes were manually dispersed and digested with collagenase (0.5 mg/ml, Sigma-Aldrich, Saint Louis, MO) to remove the follicle cell layer. Stage V or VI oocytes were selected and injected with cRNAs (9.2 ng) of channel or mutations. Especially, to characterize IKs, a mix of cRNAs at a molar ratio 4:1 (KCNQ1:KCNE1) was injected. For KCNQ2/KCNQ3, the molar ratio was 1:1 (KCNQ2:KCNQ3). For sodium channels, a 3:1 molar ratio (β1:NaV1.5) and for calcium channels a weight ratio 1:1:1 (β1:α2/δ1:CaV1.2) was injected, respectively. Injected oocytes were incubated in ND96 solution containing (in mM) 96 NaCl, 2 KCl, 1.8 CaCl2, 1 MgCl2, and 5 HEPES, pH 7.6, supplemented with 2.5 mM Na pyruvate and 1% penicillin–streptomycin, at 18 °C for 3–7 days before recording.
(§4) The whole-oocyte ionic currents were recorded with a GeneClamp 500B amplifier (Axon Instruments, CA) or iTEV90 amplifier (HEKA, Germany) and then sampled at 1 kHz and low-pass-filtered at 2 kHz. The Patchmaster software (HEKA, Germany) was used to acquire data. The Kir1.1 current was recorded with a high K^+ bath solution containing (in mM) 96 KCl, 4 NaCl, 1 CaCl2, 2 MgCl2, and 10 HEPES, pH 7.3–7.4. The HCN4 current was recorded in ND66 solution containing (in mM) 66 NaCl, 32 KCl, 1.8 CaCl2, 1 MgCl2, and 5 HEPES, pH 7.6. All the other potassium channels were recorded in ND96 solution. The currents of CaV1.2 channel were recorded in 40 mM Ba^2+ bath solution containing (in mM) 40 Ba(OH)2, 50 TEA-OH, 2 KOH, and 5 HEPES, adjusted to pH 7.4 with methanesulfonic acid. CP1 (DISODIUM 5-BROMO-2-[9-CHLORO-3-(SULFONATOOXY) NAPHTHO [1,2-B] THIEN-2-YL]-1H-INDOL-3-YL SULFATE, Sigma-Aldrich, MO) and Chromanol 293B (Sigma-Aldrich, MO) were dissolved in bath solutions. All the chemicals were purchased from Sigma-Aldrich. To measure the I–V relations of the Kir1.1 channel, the test voltage was set from −100 to +60 mV for 1 s with 20-mV increments. The test pulses were stepped from a holding potential of 0 mV and then stepped back to 0 mV. The HCN4 currents were recorded by a test pulse between −30 and −140 mV in 10-mV step from a holding potential of −30 mV. […]

KCNQ1 R249A/S253A = KCNQ1 R249A/S253A (Homo sapiens, UniProt P51787, R249A/S253A); details: 10 µM CP1, individual oocytes
Text: as §1, §2, §3, §4

KCNQ1 R249A/K354A = KCNQ1 R249A/K354A (Homo sapiens, UniProt P51787, K354A/R249A); details: 10 µM CP1, individual oocytes
Text: as §1, §2, §3, §4

KCNQ1 R259A = KCNQ1 R259A (Homo sapiens, UniProt P51787, R259A); details: 10 µM CP1, individual oocytes
Text: as §1, §2, §3, §4

KCNQ1 R243A/R249A = KCNQ1 R243A/R249A (Homo sapiens, UniProt P51787, R243A/R249A); details: 10 µM CP1, individual oocytes
Text: as §1, §2, §3, §4

KCNQ1 K354A = KCNQ1 K354A (Homo sapiens, UniProt P51787, K354A)
Text: as §1, §2, §3, §4

KCNQ1 Q359A = KCNQ1 Q359A (Homo sapiens, UniProt P51787, Q359A); details: 10 µM CP1, individual oocytes
Text: as §1, §2, §3, §4

KCNQ1 W248R = KCNQ1 W248R (Homo sapiens, UniProt P51787, W248R); details: 10 µM CP1, individual oocytes
Text: as §1, §2, §3, §4

Compound: O=S(=O)([O-])Oc1c(-c2sc3c(ccc4cccc(Cl)c43)c2OS(=O)(=O)[O-])[nH]c2ccc(Br)cc12.[Na+].[Na+] [CP1, DISODIUM 5-BROMO-2-[9-CHLORO-3-(SULFONATOOXY) NAPHTHO [1,2-B] THIEN-2-YL]-1H-INDOL-3-YL SULFATE]
- G/Gmax (KCNQ1 K358A; 10 µM CP1, 0 mV): 0.9554
- G/Gmax (KCNQ1 K358A; 10 µM CP1, 10 mV): 0.9870
- G/Gmax (KCNQ1 K358A; 10 µM CP1, 20 mV): 1.0000
- G/Gmax (KCNQ1 K358A; 10 µM CP1, -10 mV): 0.8985
- G/Gmax (KCNQ1 K358A; 10 µM CP1, -20 mV): 0.8248
- G/Gmax (KCNQ1 K358A; 10 µM CP1, -30 mV): 0.7348
- G/Gmax (KCNQ1 K358A; 10 µM CP1, -40 mV): 0.6300
- G/Gmax (KCNQ1 K358A; 10 µM CP1, -50 mV): 0.5260
- G/Gmax (KCNQ1 K358A; 10 µM CP1, -60 mV): 0.4207
- G/Gmax (KCNQ1 K358A; 10 µM CP1, -70 mV): 0.3286
- G/Gmax (KCNQ1 K358A; 10 µM CP1, -80 mV): 0.2595
- G/Gmax (KCNQ1 K358A; 10 µM CP1, -90 mV): 0.1953
- G/Gmax (KCNQ1 K358A; 10 µM CP1, -100 mV): 0.1209
- G/Gmax (KCNQ1 K358A; 10 µM CP1, -110 mV): 0.0580
- G/Gmax (KCNQ1 K358A; 10 µM CP1, -120 mV): 0.0105
- ∆V1/2 (KCNQ1 K358A; 10 µM CP1, individual oocytes): 15.3181 mV and 41.4752 mV and 28.1195 mV and 31.8534 mV and 36.2122 mV and 21.5083 mV and 28.8875 mV
- ∆V1/2 (KCNQ1 R249A/S253A): 49.1729 mV and 54.4047 mV and 38.3473 mV
- ∆V1/2 (KCNQ1 R249A/K354A): 32.102 mV and 39.1842 mV and 11.494 mV and 26.1488 mV and 17.9511 mV
- ∆V1/2 (KCNQ1 R259A): 40.9982 mV and 50.0211 mV and 57.3239 mV and 73.9485 mV
- ∆V1/2 (KCNQ1 R243A/R249A): 58.531 mV and 59.5008 mV and 36.2737 mV and 44.7577 mV
- G/Gmax (KCNQ1 K354A; 10 µM CP1, -10 mV): 1.0000
- G/Gmax (KCNQ1 K354A; 10 µM CP1, -20 mV): 0.9896
- G/Gmax (KCNQ1 K354A; 10 µM CP1, -30 mV): 0.9492
- G/Gmax (KCNQ1 K354A; 10 µM CP1, -40 mV): 0.8838
- G/Gmax (KCNQ1 K354A; 10 µM CP1, -50 mV): 0.7639
- G/Gmax (KCNQ1 K354A; 10 µM CP1, -60 mV): 0.6020
- G/Gmax (KCNQ1 K354A; 10 µM CP1, -70 mV): 0.4417
- G/Gmax (KCNQ1 K354A; 10 µM CP1, -80 mV): 0.3190
- G/Gmax (KCNQ1 K354A; 10 µM CP1, -90 mV): 0.2082
- G/Gmax (KCNQ1 K354A; 10 µM CP1, -100 mV): 0.1212
- G/Gmax (KCNQ1 K354A; 10 µM CP1, -110 mV): 0.0566
- G/Gmax (KCNQ1 K354A; 10 µM CP1, -120 mV): 0.0000
- ∆V1/2 (KCNQ1 K354A; 10 µM CP1, individual oocytes): 42.6379 mV and 47.4781 mV and 37.0916 mV and 51.9279 mV and 26.7588 mV
- ∆V1/2 (KCNQ1 Q359A): 92.2901 mV and 78.8586 mV and 79.8593 mV and 57.9843 mV
- ∆V1/2 (KCNQ1 W248R): 27.0173 mV and 42.5898 mV and 38.6048 mV
